# Key:
# NCI-H522 = test: Growth inhibition of human NCI-H522 cells assessed as cell growth at 1 uM incubated for 48 hrs by sulforhodamine B assay relative to control; assay type: functional; conditions: NCI-H522, 48 h, read-out: Activity
# 786-0 = test: Growth inhibition of human 786-0 cells assessed as cell growth at 10 uM incubated for 48 hrs by sulforhodamine B assay relative to control; assay type: functional; conditions: 786-0, 48 h, read-out: Activity
# LOX IMVI [1] = test: Growth inhibition of human LOXIMVI cells assessed as cell growth at 10 uM incubated for 48 hrs by sulforhodamine B assay relative to control; assay type: functional; conditions: read-out: Activity
# Hs-578T = test: Growth inhibition of human Hs578T cells assessed as cell growth at 10 uM incubated for 48 hrs by sulforhodamine B assay relative to control; assay type: functional; conditions: read-out: Activity
# UO-31 = test: Growth inhibition of human UO31 cells assessed as cell growth at 10 uM incubated for 48 hrs by sulforhodamine B assay relative to control; assay type: functional; conditions: UO-31, 48 h, read-out: Activity
# SNB-19 = test: Growth inhibition of human SNB19 cells assessed as cell growth at 1 uM incubated for 48 hrs by sulforhodamine B assay relative to control; assay type: functional; conditions: SNB-19, 48 h, read-out: Activity
# Malme-3M = test: Growth inhibition of human MALME-3M cells assessed as cell growth at 10 uM incubated for 48 hrs by sulforhodamine B assay relative to control; assay type: functional; conditions: read-out: Activity
# COLO 205 [2] = test: Growth inhibition of human COLO205 cells assessed as cell growth at 0.1 uM incubated for 48 hrs by sulforhodamine B assay relative to control; assay type: functional; conditions: COLO 205, 48 h, read-out: Activity
# MDA-MB-435 = test: Growth inhibition of human MDA-MB-435 cells assessed as cell growth at 10 uM incubated for 48 hrs by sulforhodamine B assay relative to control; assay type: functional; conditions: MDA-MB-435, 48 h, read-out: Activity
# RXF 393 = test: Growth inhibition of human RXF393 cells assessed as cell growth at 10 uM incubated for 48 hrs by sulforhodamine B assay relative to control; assay type: functional; conditions: RXF 393, 48 h, read-out: Activity
# LOX IMVI [3] = test: Growth inhibition of human LOXIMVI cells assessed as cell growth at 0.1 uM incubated for 48 hrs by sulforhodamine B assay relative to control; assay type: functional; conditions: read-out: Activity
# SK-MEL-5 [4] = test: Growth inhibition of human SK-MEL-5 cells assessed as cell growth at 10 uM incubated for 48 hrs by sulforhodamine B assay relative to control; assay type: functional; conditions: SK-MEL-5, 48 h, read-out: Activity
# OVCAR-4 = test: Growth inhibition of human OVCAR4 cells assessed as cell growth at 10 uM incubated for 48 hrs by sulforhodamine B assay relative to control; assay type: functional; conditions: OVCAR-4, 48 h, read-out: Activity
# SK-MEL-5 [5] = test: Growth inhibition of human SK-MEL-5 cells assessed as cell growth at 100 uM incubated for 48 hrs by sulforhodamine B assay relative to control; assay type: functional; conditions: SK-MEL-5, 48 h, read-out: Activity
# MDA-MB-468 = test: Growth inhibition of human MDA-MB-468 cells incubated for 48 hrs by sulforhodamine B assay; assay type: functional, cell-based; conditions: MDA-MB-468, 48 h
# MCF7 = test: Growth inhibition of human MCF7 cells assessed as cell growth at 10 uM incubated for 48 hrs by sulforhodamine B assay relative to control; assay type: functional; conditions: MCF7, 48 h, read-out: Activity
# NCI-H460 = test: Growth inhibition of human NCI-H460 cells assessed as cell growth at 10 uM incubated for 48 hrs by sulforhodamine B assay relative to control; assay type: functional; conditions: NCI-H460, 48 h, read-out: Activity
# M14 = test: Growth inhibition of human M14 cells assessed as cell growth at 10 uM incubated for 48 hrs by sulforhodamine B assay relative to control; assay type: functional; conditions: M14, 48 h, read-out: Activity
# COLO 205 [6] = test: Growth inhibition of human COLO205 cells assessed as cell growth at 10 uM incubated for 48 hrs by sulforhodamine B assay relative to control; assay type: functional; conditions: COLO 205, 48 h, read-out: Activity
# HCT-15 = test: Growth inhibition of human HCT15 cells assessed as cell growth at 10 uM incubated for 48 hrs by sulforhodamine B assay relative to control; assay type: functional; conditions: HCT-15, 48 h, read-out: Activity
# HCC 2998 = test: Growth inhibition of human HCC2998 cells assessed as cell growth at 10 uM incubated for 48 hrs by sulforhodamine B assay relative to control; assay type: functional; conditions: HCC 2998, 48 h, read-out: Activity
# HL-60(TB) = test: Growth inhibition of human HL-60(TB) cells assessed as cell growth at 0.1 uM incubated for 48 hrs by sulforhodamine B assay relative to control; assay type: functional; conditions: HL-60, 48 h, read-out: Activity
# CAKI-1 = test: Growth inhibition of human Caki1 cells assessed as cell growth at 10 uM incubated for 48 hrs by sulforhodamine B assay relative to control; assay type: functional; conditions: CAKI-1, 48 h, read-out: Activity
# SF-268 = test: Growth inhibition of human SF268 cells assessed as cell growth at 10 uM incubated for 48 hrs by sulforhodamine B assay relative to control; assay type: functional; conditions: SF-268, 48 h, read-out: Activity
# CCRF-CEM = test: Growth inhibition of human CCRF-CEM cells incubated for 48 hrs by sulforhodamine B assay; assay type: functional, cell-based
# NCI-H23 = test: Growth inhibition of human NCI-H23 cells assessed as cell growth at 10 uM incubated for 48 hrs by sulforhodamine B assay relative to control; assay type: functional; conditions: NCI-H23, 48 h, read-out: Activity
# DU-145 = test: Growth inhibition of human DU145 cells assessed as cell growth at 1 uM incubated for 48 hrs by sulforhodamine B assay relative to control; assay type: functional; conditions: DU-145, 48 h, read-out: Activity
# SN12C = test: Growth inhibition of human SN12C cells assessed as cell growth at 10 uM incubated for 48 hrs by sulforhodamine B assay relative to control; assay type: functional; conditions: read-out: Activity
# OVCAR-8 = test: Growth inhibition of human OVCAR8 cells assessed as cell growth at 10 uM incubated for 48 hrs by sulforhodamine B assay relative to control; assay type: functional; conditions: OVCAR-8, 48 h, read-out: Activity
# KM12 = test: Growth inhibition of human KM12 cells incubated for 48 hrs by sulforhodamine B assay; assay type: functional, cell-based; conditions: KM12, 48 h
# SR = test: Growth inhibition of human SR cells assessed as cell growth at 1 uM incubated for 48 hrs by sulforhodamine B assay relative to control; assay type: functional; conditions: read-out: Activity
# SW-620 = test: Growth inhibition of human SW620 cells assessed as cell growth at 10 uM incubated for 48 hrs by sulforhodamine B assay relative to control; assay type: functional; conditions: SW-620, 48 h, read-out: Activity
# [7] = read-out: LC50 (the source's name)
# [8] = read-out: pLC50 (the source's name) (converted)
structure (smiles),measurement,setting,value
COc1cc(Cl)cc(-c2nn(-c3cccc(NC(=O)Nc4ccc(Cl)c(C(F)(F)F)c4)c3)cc2-c2ccncc2)c1,growth at 1 µM,NCI-H522,34%
same,growth at 10 µM,786-0,-4.76%
same,growth at 10 µM,LOX IMVI [1],4.81%
same,growth at 10 µM,Hs-578T,14.6%
same,growth at 10 µM,UO-31,11.1%
same,growth at 1 µM,SNB-19,87%
same,growth at 10 µM,Malme-3M,-19.8%
same,growth at 0.1 µM,COLO 205 [2],99%
same,growth at 10 µM,MDA-MB-435,-16.8%
same,growth at 10 µM,RXF 393,-29.9%
same,growth at 0.1 µM,LOX IMVI [3],97%
same,growth at 10 µM,SK-MEL-5 [4],-71.2%
same,growth at 10 µM,OVCAR-4,16.6%
same,growth at 100 µM,SK-MEL-5 [5],-77%
same,IC50,MDA-MB-468,0.99 µM
same,GI50,MDA-MB-468; read-out: GI50,0.9 µM
same,CC50,MDA-MB-468; [7],> 100 µM
same,TGI,MDA-MB-468; read-out: TGI,54.7 µM
same,GI50,MDA-MB-468; read-out: pGI50 (converted),1 µM
same,CC50,MDA-MB-468; [8],> 100 µM
same,TGI,MDA-MB-468; read-out: pTGI (converted),5.5 µM
same,growth at 10 µM,MCF7,2.57%
same,growth at 10 µM,NCI-H460,2.76%
same,growth at 10 µM,M14,3.99%
same,growth at 10 µM,COLO 205 [6],-48.3%
same,growth at 10 µM,HCT-15,7.28%
same,growth at 10 µM,HCC 2998,18.1%
same,growth at 0.1 µM,HL-60(TB),91%
same,growth at 10 µM,CAKI-1,9.38%
same,growth at 10 µM,SF-268,22.9%
same,GI50,CCRF-CEM; read-out: GI50,0.613 µM
same,CC50,CCRF-CEM; [7],> 100 µM
same,TGI,CCRF-CEM; read-out: TGI,35.5 µM
same,CC50,CCRF-CEM; [8],> 100 µM
same,growth at 10 µM,NCI-H23,0.3%
same,growth at 1 µM,DU-145,64%
same,growth at 10 µM,SN12C,13.8%
same,growth at 10 µM,OVCAR-8,8.71%
same,GI50,KM12; read-out: GI50,0.555 µM
same,CC50,KM12; [7],4 µM
same,TGI,KM12; read-out: TGI,44.4 µM
same,GI50,KM12; read-out: pGI50 (converted),0.55 µM
same,CC50,KM12; [8],40.7 µM
same,TGI,KM12; read-out: pTGI (converted),4.47 µM
same,growth at 1 µM,SR,53%
same,growth at 10 µM,SW-620,12.7%
COc1cc(Cl)cc(-c2nn(-c3cccc(NC(=O)c4ccc(N5CCOCC5)c(C(F)(F)F)c4)c3)cc2-c2ccncc2)c1,growth at 1 µM,NCI-H522,77%
same,growth at 10 µM,786-0,43.1%
same,growth at 10 µM,LOX IMVI [1],47.3%
same,growth at 10 µM,Hs-578T,40.7%
same,growth at 10 µM,UO-31,40.7%
same,growth at 1 µM,SNB-19,92%
same,growth at 10 µM,Malme-3M,57.9%
same,growth at 0.1 µM,COLO 205 [2],100%
same,growth at 10 µM,MDA-MB-435,63.4%
same,growth at 10 µM,RXF 393,12.4%
same,growth at 0.1 µM,LOX IMVI [3],95%
same,growth at 10 µM,SK-MEL-5 [4],71.5%
same,growth at 10 µM,OVCAR-4,67.9%
same,growth at 100 µM,SK-MEL-5 [5],21%
same,IC50,MDA-MB-468,12.1 µM
same,GI50,MDA-MB-468; read-out: GI50,1.21 µM
same,CC50,MDA-MB-468; [7],> 100 µM
same,TGI,MDA-MB-468; read-out: TGI,> 100 µM
same,GI50,MDA-MB-468; read-out: pGI50 (converted),12 µM
same,CC50,MDA-MB-468; [8],> 100 µM
same,TGI,MDA-MB-468; read-out: pTGI (converted),> 100 µM
same,growth at 10 µM,MCF7,45.3%
same,growth at 10 µM,NCI-H460,29.3%
same,growth at 10 µM,M14,56.7%
same,growth at 10 µM,COLO 205 [6],52.7%
same,growth at 10 µM,HCT-15,17.2%
same,growth at 10 µM,HCC 2998,52.3%
same,growth at 0.1 µM,HL-60(TB),91%
same,growth at 10 µM,CAKI-1,46.7%
same,growth at 10 µM,SF-268,67.3%
same,GI50,CCRF-CEM; read-out: GI50,3.58 µM
same,CC50,CCRF-CEM; [7],> 100 µM
same,TGI,CCRF-CEM; read-out: TGI,> 100 µM
same,GI50,CCRF-CEM; read-out: pGI50 (converted),3.89 µM
same,CC50,CCRF-CEM; [8],> 100 µM
same,TGI,CCRF-CEM; read-out: pTGI (converted),> 100 µM
same,growth at 10 µM,NCI-H23,79%
same,growth at 1 µM,DU-145,105%
same,growth at 10 µM,SN12C,79.8%
same,growth at 10 µM,OVCAR-8,42.1%
same,GI50,KM12; read-out: GI50,5.38 µM
same,CC50,KM12; [7],> 100 µM
same,TGI,KM12; read-out: TGI,> 100 µM
same,GI50,KM12; read-out: pGI50 (converted),5.37 µM
same,CC50,KM12; [8],> 100 µM
same,TGI,KM12; read-out: pTGI (converted),> 100 µM
same,growth at 1 µM,SR,52%
same,growth at 10 µM,SW-620,69.2%
